The results in this text go back to US7045532B2 (Millennium Pharmaceuticals, Inc., priority 1999, dated 2006).

The target of data set [1] is T1, ACE-2 (Homo sapiens, UniProt Q9BYF1).
T1 construct: a stop codon inserted after the serine immediately preceding the transmembrane domain; made in house; host or cells: CHO K1 cells (transient transfection, purified from conditioned medium)
As to the kind of experiment: ACE-2 Competitive Substrate Assay (ACS Assay). The format is biochemical. Conditions: Ki class; compounds tested in 5% DMSO, 12 concentrations; read-out: Human ACE-2 Activity.

For another data set, the target named is T2, Carboxypeptidase A (Bos taurus, UniProt P00730).
T2 sequence (P00730 111-419): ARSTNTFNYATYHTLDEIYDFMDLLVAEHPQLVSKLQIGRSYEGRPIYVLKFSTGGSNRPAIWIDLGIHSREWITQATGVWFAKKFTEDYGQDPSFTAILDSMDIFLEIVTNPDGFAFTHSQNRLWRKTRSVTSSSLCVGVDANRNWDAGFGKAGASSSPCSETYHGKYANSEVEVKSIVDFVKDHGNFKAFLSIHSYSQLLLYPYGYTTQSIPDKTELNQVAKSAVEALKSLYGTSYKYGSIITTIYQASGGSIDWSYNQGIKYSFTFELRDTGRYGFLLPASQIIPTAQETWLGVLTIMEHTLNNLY
As to the kind of experiment: Carboxypeptidase A activity assay. The format is biochemical. Conditions: Ki class; compounds tested in 5% DMSO, 12 concentrations. The procedure, abridged: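 Bovine carboxypeptidase A activity followed at 328 nm in 5% DMSO, reaction stopped with EDTA. Activity measured at 12 compound concentrations. Ki derived from apparent Ki as Ki=Kiapp/(1+[S]/Km).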

Another data set addresses T3, ACE (Sigma, A2580) (Sus scrofa, UniProt F1RRW5).
T3 construct: ACE from porcine kidney; purchased Sigma A2580; host or cells: porcine kidney
T3 sequence (F1RRW5 34-1309): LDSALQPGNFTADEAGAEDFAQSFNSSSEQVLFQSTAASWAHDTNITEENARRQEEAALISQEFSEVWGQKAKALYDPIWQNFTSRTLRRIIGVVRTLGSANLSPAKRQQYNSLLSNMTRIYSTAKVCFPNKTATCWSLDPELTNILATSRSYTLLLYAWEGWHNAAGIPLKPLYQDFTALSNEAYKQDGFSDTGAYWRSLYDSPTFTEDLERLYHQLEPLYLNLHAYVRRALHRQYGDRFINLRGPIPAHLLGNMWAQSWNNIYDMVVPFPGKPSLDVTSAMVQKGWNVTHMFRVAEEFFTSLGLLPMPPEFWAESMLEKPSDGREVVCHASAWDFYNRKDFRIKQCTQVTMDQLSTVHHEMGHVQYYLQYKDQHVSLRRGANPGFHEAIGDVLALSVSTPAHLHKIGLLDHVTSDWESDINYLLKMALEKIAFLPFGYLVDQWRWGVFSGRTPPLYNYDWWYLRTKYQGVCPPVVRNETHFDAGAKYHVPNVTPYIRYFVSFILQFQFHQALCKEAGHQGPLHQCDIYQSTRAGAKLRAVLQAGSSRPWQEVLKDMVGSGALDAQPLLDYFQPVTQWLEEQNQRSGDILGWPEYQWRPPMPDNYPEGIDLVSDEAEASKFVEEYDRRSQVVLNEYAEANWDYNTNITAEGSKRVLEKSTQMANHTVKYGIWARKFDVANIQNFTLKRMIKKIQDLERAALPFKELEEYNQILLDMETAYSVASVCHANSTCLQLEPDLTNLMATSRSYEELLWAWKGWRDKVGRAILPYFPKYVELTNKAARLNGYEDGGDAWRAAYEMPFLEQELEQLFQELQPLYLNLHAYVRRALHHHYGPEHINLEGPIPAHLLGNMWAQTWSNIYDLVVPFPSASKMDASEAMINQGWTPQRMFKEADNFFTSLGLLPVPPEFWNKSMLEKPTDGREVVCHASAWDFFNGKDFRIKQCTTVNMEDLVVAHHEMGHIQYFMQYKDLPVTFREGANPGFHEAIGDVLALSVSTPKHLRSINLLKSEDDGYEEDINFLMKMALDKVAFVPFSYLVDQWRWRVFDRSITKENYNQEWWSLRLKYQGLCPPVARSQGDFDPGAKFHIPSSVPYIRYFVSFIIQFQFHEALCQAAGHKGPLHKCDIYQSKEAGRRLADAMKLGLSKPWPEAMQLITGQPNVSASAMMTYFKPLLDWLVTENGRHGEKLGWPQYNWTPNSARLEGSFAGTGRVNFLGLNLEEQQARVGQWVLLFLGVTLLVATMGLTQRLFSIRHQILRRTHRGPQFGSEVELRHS
As to the kind of experiment: ACE enzymatic activity assay. The format is biochemical, porcine. Conditions: Ki class; compounds tested in 5% DMSO, 12 concentrations. An outline of the steps: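 ACE (1 nM final) in 50 mM HEPES, 300 mM NaCl, 0.01% Brij-35, pH 7.5, with compound in 5% DMSO at 12 concentrations, 25 °C. Substrate cleavage run ~30 min, stopped with EDTA; fluorescence read at excitation 320 nm, emission 405 nm.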

Data set [2] addresses ACE-2 (Rattus norvegicus, UniProt Q5EGZ1). The experiment in a line: ACE-2 Competitive Substrate Assay, rat ACE-2. The format is biochemical. Conditions: Ki class; compounds tested in 5% DMSO, 12 concentrations.
Data set [3] in a line: Effect on appetite: food consumption in ICR mice. Conditions: 3 mg/kg oral.
Data set [4] has as its system COc1ccc2c(CC(=O)N[C@@H](Cc3ccc(O)cc3)C(=O)N[C@H](C(=O)N[C@@H](C)C(=O)N[C@@H](CC(=O)O)C(=O)N[C@@H](C)C(=O)N3CCC[C@H]3C(=O)N[C@@H](CCCCNc3ccc([N+](=O)[O-])cc3[N+](=O)[O-])C(=O)O)C(C)C)cc(=O)oc2c1. The experiment in a line: purified protein, by the assay type. Conditions: other: fluorogenic substrate of ACE-2, pH 6.5, 25° C.
Procedure: (§1) ACE-2 enzymatic activity was assayed in microtitre plates by the following procedure. The ACE-2 assay buffer used contained 50 mM MES (Boehringer-Mannheim), 300 mM NaCl (Sigma) and 0.01% Brij-35 (Pierce Chemical Co.) at pH 6.5.
(§2) Reactions were mixed and incubated at 25° C.
The test system of data set [5] is COc1ccc2c(CC(=O)N[C@@H](C)C(=O)N3CCC[C@H]3C(=O)N[C@@H](CCCCNc3ccc([N+](=O)[O-])cc3[N+](=O)[O-])C(=O)O)cc(=O)oc2c1. The experiment in a line: purified protein, by the assay type. Conditions: other: fluorogenic substrate of ACE-2, pH 6.5, 25° C.
Procedure: as §1, §2

Where only a bound is given, the exact number is not on record here.

T1 sequence (Q9BYF1 18-740 limits assumed): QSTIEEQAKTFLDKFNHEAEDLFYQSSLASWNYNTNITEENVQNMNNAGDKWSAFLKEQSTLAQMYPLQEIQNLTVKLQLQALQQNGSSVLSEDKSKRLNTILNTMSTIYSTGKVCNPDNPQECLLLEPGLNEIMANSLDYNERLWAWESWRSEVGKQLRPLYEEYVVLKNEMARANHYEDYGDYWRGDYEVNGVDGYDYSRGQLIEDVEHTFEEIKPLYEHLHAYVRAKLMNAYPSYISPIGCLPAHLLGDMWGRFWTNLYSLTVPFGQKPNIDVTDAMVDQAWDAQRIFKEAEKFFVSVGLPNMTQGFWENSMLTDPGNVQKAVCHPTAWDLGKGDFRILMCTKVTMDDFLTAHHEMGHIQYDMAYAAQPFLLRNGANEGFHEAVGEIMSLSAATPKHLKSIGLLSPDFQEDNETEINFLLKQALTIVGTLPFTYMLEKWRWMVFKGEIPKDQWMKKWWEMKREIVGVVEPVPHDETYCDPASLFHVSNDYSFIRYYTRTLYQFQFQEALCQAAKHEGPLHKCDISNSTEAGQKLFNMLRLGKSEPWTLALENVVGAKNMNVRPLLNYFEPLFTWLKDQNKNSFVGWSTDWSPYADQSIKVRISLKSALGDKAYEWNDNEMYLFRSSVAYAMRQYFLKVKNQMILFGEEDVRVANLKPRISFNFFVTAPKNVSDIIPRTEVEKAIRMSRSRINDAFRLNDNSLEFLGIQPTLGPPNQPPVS
Chain of ACE-2 (Rattus norvegicus, UniProt Q5EGZ1) (Q5EGZ1 18-805): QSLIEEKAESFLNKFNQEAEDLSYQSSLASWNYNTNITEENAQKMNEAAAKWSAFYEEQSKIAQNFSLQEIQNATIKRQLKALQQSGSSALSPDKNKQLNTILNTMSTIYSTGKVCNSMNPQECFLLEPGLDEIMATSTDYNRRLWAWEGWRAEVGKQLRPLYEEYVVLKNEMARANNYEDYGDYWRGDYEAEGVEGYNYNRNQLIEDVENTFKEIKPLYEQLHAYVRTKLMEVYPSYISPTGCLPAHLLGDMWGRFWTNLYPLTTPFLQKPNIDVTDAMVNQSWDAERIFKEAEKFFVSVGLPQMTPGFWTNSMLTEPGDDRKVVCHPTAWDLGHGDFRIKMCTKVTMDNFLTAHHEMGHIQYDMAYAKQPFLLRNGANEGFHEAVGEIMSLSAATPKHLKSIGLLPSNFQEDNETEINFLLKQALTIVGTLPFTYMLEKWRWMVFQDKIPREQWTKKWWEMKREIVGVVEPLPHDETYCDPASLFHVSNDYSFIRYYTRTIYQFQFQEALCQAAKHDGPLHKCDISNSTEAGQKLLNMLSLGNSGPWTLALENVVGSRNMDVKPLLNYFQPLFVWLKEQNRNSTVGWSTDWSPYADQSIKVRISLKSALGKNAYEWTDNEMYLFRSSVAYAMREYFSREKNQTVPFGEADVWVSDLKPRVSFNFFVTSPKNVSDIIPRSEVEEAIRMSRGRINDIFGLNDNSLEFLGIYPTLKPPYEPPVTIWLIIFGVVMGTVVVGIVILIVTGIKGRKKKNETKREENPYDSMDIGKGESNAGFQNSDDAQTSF

With `CC(C)C[C@H](N[C@@H](C(=O)O)c1ccccc1)C(=O)O` [R, 2-[(Carboxy-phenyl-methyl)-amino]-4-methyl-pentanoic acid], the Ki at ACE-2 [1] is above 0.5 µM; at Carboxypeptidase A, above 50 µM; at ACE (Sigma, A2580), above 50 µM; on ACE-2 [2], above 0.5 µM.
`CC(C)C[C@H](N[C@H](CC(=O)O)C(=O)O)C(=O)O` [U, 2-(1-Carboxy-3-methyl-butylamino)-succinic acid]: the Ki on ACE-2 [1] was above 0.5 µM; on Carboxypeptidase A it was above 50 µM; on ACE (Sigma, A2580) it was above 50 µM; on ACE-2 [2], above 0.5 µM.
Take `CC(N)Cc1ccccc1` (centres unmarked) [amphetamine, reference compound]: the values for the cumulative food consumption result in data set [3] (one hour) and in data set [3] (six hours) were “about 0.18±0.05 g” and “about 3.10±0.03 g”, respectively.
Broadly, the Km is the substrate concentration at which the rate is half of its maximum. A word on the kcat/Km: it is the turnover number divided by the Michaelis constant. For ACE-2 (Homo sapiens), in data set [4], the Michaelis-Menten constant (Km) was found to be 130 µM and the kcat/Km was 42000 M⁻¹ s⁻¹. Also, in data set [5], the Michaelis-Menten constant (Km) came out at 340 µM and the kcat/Km was 230000 M⁻¹ s⁻¹.
